Measurements published in ChEMBL document CHEMBL1201862, “PubChem BioAssay data set” (2004).
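Method: 48-hour compound exposure of cells in 96-well plates, five concentrations, linear interpolation of endpoints. The concentration for 50% growth inhibition is given as GI50.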 Calls of active or inactive are those of the source. No stated cut-off is given here; in the data, active = GI50 up to about 1.1 µM and inactive = higher.

Tests used:
Assay in all cases: NCI anticancer screen, dose series, 48 h
TK-10 = tested on: TK-10
U-251 = tested on: U-251
M14 = tested on: M14
NCI-H23 = tested on: NCI-H23
HOP-92 = tested on: HOP-92
SW-620 = tested on: SW-620
MOLT-4 = tested on: MOLT-4
UO-31 = tested on: UO-31
SNB-19 = tested on: SNB-19
HCT-116 = tested on: HCT-116
SK-MEL-28 = tested on: SK-MEL-28
SK-MEL-5 = tested on: SK-MEL-5
SNB-75 = tested on: SNB-75
RXF 393 = tested on: RXF 393
K562 = tested on: K562
HCC 2998 = tested on: HCC 2998
786-0 = tested on: 786-0

SMILES | GI50 (TK-10) | GI50 (U-251) | GI50 (M14) | GI50 (NCI-H23) | GI50 (HOP-92) | GI50 (SW-620) | GI50 (MOLT-4) | GI50 (UO-31) | GI50 (SNB-19) | GI50 (HCT-116) | GI50 (SK-MEL-28) | GI50 (SK-MEL-5) | GI50 (SNB-75) | GI50 (RXF 393) | GI50 (K562) | GI50 (HCC 2998) | GI50 (786-0)
Nc1nc(CC2(O)CCCCC2)cc(-c2ccccc2)n1 | > 61.8 µM (inactive) | 39 µM (inactive) | 29.2 µM (inactive) | > 43 µM (inactive) | > 44.9 µM (inactive) | 25.7 µM (inactive) | 16.7 µM (inactive) | > 55 µM (inactive) | 31.2 µM (inactive) | 19.8 µM (inactive) | > 63.2 µM (inactive) | 24.9 µM (inactive) | > 47.9 µM (inactive) | > 40.3 µM (inactive) | 16.6 µM (inactive) | 26.6 µM (inactive) | 21 µM (inactive)
CC(=O)Oc1c2c(c(O)c3ccccc13)C(n1cnc3c(ncn3C3OC(CO)C4OC(C)(C)OC43)c1=N)CCC2 (centres undefined) | 21.5 µM (inactive) | 18.9 µM (inactive) |  | 16.8 µM (inactive) | 22.6 µM (inactive) | 15.3 µM (inactive) | 11.1 µM (inactive) | 16.2 µM (inactive) | 16 µM (inactive) |  | 17.5 µM (inactive) | 12.1 µM (inactive) | 17.5 µM (inactive) | 18.3 µM (inactive) | 6.84 µM (inactive) | 15 µM (inactive) | 14.5 µM (inactive)
FC1OC2OC1C(OCc1ccccc1)C(OCc1ccccc1)C2OCc1ccccc1 (centres undefined) | 52.8 µM (inactive) | 88.3 µM (inactive) | 28.1 µM (inactive) | > 100 µM (inactive) | 15.3 µM (inactive) | 40.6 µM (inactive) | 22.8 µM (inactive) | 36.1 µM (inactive) | 84.9 µM (inactive) | 25.3 µM (inactive) | 33.4 µM (inactive) | 45.6 µM (inactive) | 34.7 µM (inactive) | > 100 µM (inactive) | 25.8 µM (inactive) |  | 43.2 µM (inactive)
O=C1COc2cc3c(cc2N1)SCCC(=O)N3 | > 100 µM (inactive) |  | > 100 µM (inactive) | > 100 µM (inactive) | > 100 µM (inactive) | > 100 µM (inactive) | > 100 µM (inactive) | > 100 µM (inactive) | > 100 µM (inactive) | > 100 µM (inactive) | > 100 µM (inactive) | > 100 µM (inactive) | > 100 µM (inactive) |  | > 100 µM (inactive) | > 100 µM (inactive) | > 100 µM (inactive)
NC(=O)NC12CC3CC(CC(F)(C3)C1)C2 | > 100 µM (inactive) | > 100 µM (inactive) | > 100 µM (inactive) | > 100 µM (inactive) | > 100 µM (inactive) | > 100 µM (inactive) | > 100 µM (inactive) | > 100 µM (inactive) | > 100 µM (inactive) | > 100 µM (inactive) | > 100 µM (inactive) |  | 87.9 µM (inactive) | > 100 µM (inactive) | > 100 µM (inactive) | > 100 µM (inactive) | > 100 µM (inactive)
CC(C#N)c1cn(S(=O)(=O)c2ccccc2)c2ccccc12 (centres undefined) | > 100 µM (inactive) | > 100 µM (inactive) | 33.7 µM (inactive) | 39.9 µM (inactive) | 12.4 µM (inactive) | > 100 µM (inactive) | 35.9 µM (inactive) | 15.8 µM (inactive) | 42.9 µM (inactive) | 40.1 µM (inactive) | 60.7 µM (inactive) | 16.2 µM (inactive) | 8.95 µM (inactive) |  | 39.8 µM (inactive) | 76.7 µM (inactive) | > 100 µM (inactive)
O=C(Nc1cccc([N+](=O)[O-])c1)C(=O)C(C(=O)c1ccccc1-c1ccccc1)C1OC(=O)c2ccccc21 (centres undefined) | 30.4 µM (inactive) | 13.4 µM (inactive) | 17.8 µM (inactive) | 14.7 µM (inactive) | 13.4 µM (inactive) | 27.2 µM (inactive) | 13.2 µM (inactive) | 20.2 µM (inactive) |  | 12.8 µM (inactive) | 23.5 µM (inactive) | 16.2 µM (inactive) | 22.9 µM (inactive) | 13.3 µM (inactive) | 28 µM (inactive) | 16.2 µM (inactive) | 18.7 µM (inactive)
Cc1ccc(C[P+]2(c3ccccc3)CCCCC2)cc1.[O-][Cl+3]([O-])([O-])[O-] | 51.2 µM (inactive) | 12.5 µM (inactive) | 25.8 µM (inactive) | 24.7 µM (inactive) |  | 33.3 µM (inactive) | 33 µM (inactive) | > 100 µM (inactive) | 32.3 µM (inactive) | 1.33 µM (inactive) | 27.7 µM (inactive) | 10.6 µM (inactive) | 24.4 µM (inactive) | > 100 µM (inactive) | 34.8 µM (inactive) | 21 µM (inactive) | 47.4 µM (inactive)
O=C1NC2OC(CO)C(O)C(O)C2O1 (centres undefined) | > 100 µM (inactive) | > 100 µM (inactive) | > 100 µM (inactive) | > 100 µM (inactive) | > 100 µM (inactive) | > 100 µM (inactive) | > 100 µM (inactive) | > 100 µM (inactive) | > 100 µM (inactive) | > 100 µM (inactive) | > 100 µM (inactive) | > 100 µM (inactive) | > 100 µM (inactive) |  | > 100 µM (inactive) | > 100 µM (inactive) | > 100 µM (inactive)
Cc1ccc2c(c1)C1(C)OC(CC(N)C1O)O2 (centres undefined) | > 100 µM (inactive) | > 100 µM (inactive) | > 100 µM (inactive) | > 100 µM (inactive) |  | > 100 µM (inactive) | > 100 µM (inactive) | > 100 µM (inactive) | > 100 µM (inactive) | > 100 µM (inactive) | > 100 µM (inactive) | > 100 µM (inactive) | 29.8 µM (inactive) | > 100 µM (inactive) | > 100 µM (inactive) |  | > 100 µM (inactive)
Cc1ccc(SSc2ccc(C)cc2C(=O)O)c(C(=O)O)c1 | > 100 µM (inactive) | > 100 µM (inactive) |  | > 100 µM (inactive) | > 100 µM (inactive) | > 100 µM (inactive) | > 100 µM (inactive) | > 100 µM (inactive) | > 100 µM (inactive) |  | > 100 µM (inactive) | > 100 µM (inactive) |  | > 100 µM (inactive) | > 100 µM (inactive) |  | > 100 µM (inactive)
CCC(CO)Nc1nc2c(c(=O)n(C)c(=O)n2C)n1CCO (centres undefined) | > 100 µM (inactive) | > 100 µM (inactive) |  | > 100 µM (inactive) | > 100 µM (inactive) | > 100 µM (inactive) | > 100 µM (inactive) | > 100 µM (inactive) | > 100 µM (inactive) | > 100 µM (inactive) | > 100 µM (inactive) | > 100 µM (inactive) | 48.9 µM (inactive) | > 100 µM (inactive) | > 100 µM (inactive) | > 100 µM (inactive) | > 100 µM (inactive)
COC(=O)C(C#CCCCCC#CC(NC(=O)OCc1ccccc1)(C(=O)OC)C(F)(F)F)(NC(=O)OCc1ccccc1)C(F)(F)F (centres undefined) | > 100 µM (inactive) | > 100 µM (inactive) | > 100 µM (inactive) | > 100 µM (inactive) | > 100 µM (inactive) | > 100 µM (inactive) |  | 7.45 µM (inactive) | > 100 µM (inactive) | 97.9 µM (inactive) | > 100 µM (inactive) | > 100 µM (inactive) | > 100 µM (inactive) | > 100 µM (inactive) | 8.38 µM (inactive) | > 100 µM (inactive) | > 100 µM (inactive)
Nc1ccc(C(=O)N/C(=C\C=C\c2ccco2)c2nc3c(O)nc(S)nc3[nH]2)cc1 | > 100 µM (inactive) | > 100 µM (inactive) | > 100 µM (inactive) | > 100 µM (inactive) | > 100 µM (inactive) | > 100 µM (inactive) | > 100 µM (inactive) | > 100 µM (inactive) | > 100 µM (inactive) |  | > 100 µM (inactive) | > 100 µM (inactive) |  | > 100 µM (inactive) | > 100 µM (inactive) | > 100 µM (inactive) | > 100 µM (inactive)
COC1CC(OS(=O)(=O)c2ccc(C)cc2)C(OS(=O)(=O)c2ccc(C)cc2)C(COS(=O)(=O)c2ccc(C)cc2)O1 (centres undefined) |  | 3.01 µM (inactive) | 5.22 µM (inactive) | 2.92 µM (inactive) |  | 15.6 µM (inactive) | > 100 µM (inactive) | 3.76 µM (inactive) | 2.22 µM (inactive) | 14.5 µM (inactive) | 2.98 µM (inactive) | 4.85 µM (inactive) | 0.535 µM (active) | 1.71 µM (inactive) | 23.9 µM (inactive) | 12.8 µM (inactive) | 1.6 µM (inactive)
NC(=O)C1C(=O)Oc2cccnc21 (centres undefined) | > 100 µM (inactive) | > 100 µM (inactive) | > 100 µM (inactive) | > 100 µM (inactive) |  | 83 µM (inactive) | > 100 µM (inactive) | 99.8 µM (inactive) | > 100 µM (inactive) | > 100 µM (inactive) | > 100 µM (inactive) | > 100 µM (inactive) | 17.8 µM (inactive) | > 100 µM (inactive) | > 100 µM (inactive) |  | > 100 µM (inactive)
Cc1cccc(C(C)(C)C)c1NC(=O)CC1Sc2ccccc2NC1=O (centres undefined) | 41.7 µM (inactive) | 25.6 µM (inactive) | > 100 µM (inactive) | 46.6 µM (inactive) | 3.8 µM (inactive) | 17.3 µM (inactive) | 43.3 µM (inactive) | 60.5 µM (inactive) | > 100 µM (inactive) | 22.4 µM (inactive) | > 100 µM (inactive) | > 100 µM (inactive) | > 100 µM (inactive) |  | 33 µM (inactive) | > 100 µM (inactive) | 46 µM (inactive)
